Data taken from ChEMBL document CHEMBL1833942, “6-arylcoumarins as novel nonsteroidal type progesterone antagonists: an example with receptor-binding-dependent fluorescence” (J Med Chem, 2011).
The source made the active and inactive calls. The calls are words filed in the database; no cut-off is given here.

Assays:
Progesterone receptor [1] = target: T1, Progesterone receptor (Homo sapiens, UniProt P06401); assay: Antagonist activity at human progesterone receptor in T47D cells after 24 hrs by alkaline phosphatase assay; type: functional, cell-based
T1 sequence (P06401 whole entry): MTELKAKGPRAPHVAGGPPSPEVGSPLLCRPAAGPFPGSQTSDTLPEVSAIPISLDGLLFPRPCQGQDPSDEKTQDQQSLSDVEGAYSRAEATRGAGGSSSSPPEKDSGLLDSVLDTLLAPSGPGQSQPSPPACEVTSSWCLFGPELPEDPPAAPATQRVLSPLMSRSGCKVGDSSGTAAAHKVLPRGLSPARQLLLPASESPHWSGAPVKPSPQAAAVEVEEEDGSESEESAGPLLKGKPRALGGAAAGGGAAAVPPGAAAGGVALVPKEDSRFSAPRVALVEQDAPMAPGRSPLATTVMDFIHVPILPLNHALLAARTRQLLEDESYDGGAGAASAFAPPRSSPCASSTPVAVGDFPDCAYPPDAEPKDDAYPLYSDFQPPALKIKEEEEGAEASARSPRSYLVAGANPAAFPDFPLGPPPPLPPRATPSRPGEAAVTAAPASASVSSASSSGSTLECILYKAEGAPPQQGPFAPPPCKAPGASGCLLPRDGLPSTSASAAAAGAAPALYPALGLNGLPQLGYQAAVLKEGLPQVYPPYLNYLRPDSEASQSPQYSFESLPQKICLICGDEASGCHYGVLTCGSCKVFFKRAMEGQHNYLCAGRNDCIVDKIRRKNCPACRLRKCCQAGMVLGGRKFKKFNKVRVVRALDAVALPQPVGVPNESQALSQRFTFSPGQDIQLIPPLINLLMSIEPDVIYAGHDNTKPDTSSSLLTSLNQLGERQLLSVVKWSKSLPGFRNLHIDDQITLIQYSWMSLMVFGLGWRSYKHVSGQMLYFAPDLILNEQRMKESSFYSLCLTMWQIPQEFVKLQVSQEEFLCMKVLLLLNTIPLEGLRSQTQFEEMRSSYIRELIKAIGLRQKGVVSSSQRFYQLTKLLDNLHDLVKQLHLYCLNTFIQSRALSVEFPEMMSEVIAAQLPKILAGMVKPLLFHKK

[2] = target: T2, Progesterone receptor (Homo sapiens) (UniProt P06401); assay: Antagonist activity at human progesterone receptor expressed in CHO cells at 10^-7 M after 24 hrs by luciferase reporter gene assay; type: functional, cell-based
T2 sequence (whole entry): T1 sequence (P06401 whole entry)

[3] = target: T2, Progesterone receptor (Homo sapiens); assay: Antagonist activity at human progesterone receptor expressed in CHO cells at 10^-6 M after 24 hrs by luciferase reporter gene assay; type: functional, cell-based
Progesterone receptor [4] = target: T1, Progesterone receptor; assay: Displacement of [1,2,6,7-3H]PG from human PR-LBD after 24 hrs by liquid scintillation counting
[5] = target: T2, Progesterone receptor (Homo sapiens); assay: Antagonist activity at human progesterone receptor expressed in CHO cells at 10^-5 M after 24 hrs by luciferase reporter gene assay; type: functional, cell-based
Glucocorticoid receptor = target: T3, Glucocorticoid receptor (Homo sapiens, UniProt P04150); assay: Displacement of [3H]-dexamethasone from human recombinant glucocorticoid receptor after 18 hrs by liquid scintillation counting
T3 sequence (P04150 whole entry): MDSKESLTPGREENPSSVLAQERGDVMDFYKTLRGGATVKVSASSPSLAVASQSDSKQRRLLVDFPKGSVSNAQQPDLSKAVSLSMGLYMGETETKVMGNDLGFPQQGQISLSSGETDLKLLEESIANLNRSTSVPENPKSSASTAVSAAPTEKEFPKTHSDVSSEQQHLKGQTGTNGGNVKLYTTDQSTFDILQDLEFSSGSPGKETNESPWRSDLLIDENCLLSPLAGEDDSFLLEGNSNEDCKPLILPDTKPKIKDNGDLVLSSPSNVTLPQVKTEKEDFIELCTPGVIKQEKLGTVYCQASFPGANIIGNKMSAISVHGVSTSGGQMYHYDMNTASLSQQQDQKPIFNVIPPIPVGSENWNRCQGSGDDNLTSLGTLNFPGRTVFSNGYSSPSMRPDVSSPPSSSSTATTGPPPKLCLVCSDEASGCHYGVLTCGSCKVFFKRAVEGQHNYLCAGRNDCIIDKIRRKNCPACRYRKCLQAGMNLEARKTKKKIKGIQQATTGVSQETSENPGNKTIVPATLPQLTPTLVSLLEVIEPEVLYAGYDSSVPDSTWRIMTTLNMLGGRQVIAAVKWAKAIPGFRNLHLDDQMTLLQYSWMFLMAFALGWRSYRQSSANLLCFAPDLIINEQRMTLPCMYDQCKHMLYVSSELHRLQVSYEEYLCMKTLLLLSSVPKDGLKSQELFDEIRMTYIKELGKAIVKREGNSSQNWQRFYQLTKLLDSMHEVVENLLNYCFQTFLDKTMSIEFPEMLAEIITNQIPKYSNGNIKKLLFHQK

[6] = target: T4, Estrogen receptor (Homo sapiens) (UniProt P03372); assay: Binding affinity at human estrogen receptor by fluorescence assay
T4 sequence (whole entry): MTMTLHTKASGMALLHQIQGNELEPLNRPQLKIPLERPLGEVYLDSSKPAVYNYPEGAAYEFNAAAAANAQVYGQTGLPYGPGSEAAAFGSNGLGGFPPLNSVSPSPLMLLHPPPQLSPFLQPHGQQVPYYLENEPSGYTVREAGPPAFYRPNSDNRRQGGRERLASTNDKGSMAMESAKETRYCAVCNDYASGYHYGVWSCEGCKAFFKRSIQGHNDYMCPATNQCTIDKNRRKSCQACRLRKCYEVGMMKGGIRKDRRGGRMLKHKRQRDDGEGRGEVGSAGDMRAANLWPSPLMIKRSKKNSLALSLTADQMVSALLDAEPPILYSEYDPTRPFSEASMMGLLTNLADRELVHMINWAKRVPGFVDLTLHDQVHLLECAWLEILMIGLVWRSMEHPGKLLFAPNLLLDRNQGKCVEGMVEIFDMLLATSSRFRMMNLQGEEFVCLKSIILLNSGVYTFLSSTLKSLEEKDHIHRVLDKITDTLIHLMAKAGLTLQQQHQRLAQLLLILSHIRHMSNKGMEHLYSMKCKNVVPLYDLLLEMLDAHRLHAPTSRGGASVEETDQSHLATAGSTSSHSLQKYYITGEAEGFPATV

[7] = target: T2, Progesterone receptor (Homo sapiens); assay: Binding affinity to human PR LBD by fluorescence assay
[8] = target: T2, Progesterone receptor (Homo sapiens); assay: Binding affinity to human PR LBD by fluorescence assay in presence of progesterone
Androgen receptor = target: T5, Androgen receptor (Homo sapiens, UniProt P10275); assay: Displacement of [3H]DHT from human recombinant androgen receptor-LBD expressed in Escherichia coli after 18 hrs by liquid scintillation counting
T5 sequence (P10275 whole entry): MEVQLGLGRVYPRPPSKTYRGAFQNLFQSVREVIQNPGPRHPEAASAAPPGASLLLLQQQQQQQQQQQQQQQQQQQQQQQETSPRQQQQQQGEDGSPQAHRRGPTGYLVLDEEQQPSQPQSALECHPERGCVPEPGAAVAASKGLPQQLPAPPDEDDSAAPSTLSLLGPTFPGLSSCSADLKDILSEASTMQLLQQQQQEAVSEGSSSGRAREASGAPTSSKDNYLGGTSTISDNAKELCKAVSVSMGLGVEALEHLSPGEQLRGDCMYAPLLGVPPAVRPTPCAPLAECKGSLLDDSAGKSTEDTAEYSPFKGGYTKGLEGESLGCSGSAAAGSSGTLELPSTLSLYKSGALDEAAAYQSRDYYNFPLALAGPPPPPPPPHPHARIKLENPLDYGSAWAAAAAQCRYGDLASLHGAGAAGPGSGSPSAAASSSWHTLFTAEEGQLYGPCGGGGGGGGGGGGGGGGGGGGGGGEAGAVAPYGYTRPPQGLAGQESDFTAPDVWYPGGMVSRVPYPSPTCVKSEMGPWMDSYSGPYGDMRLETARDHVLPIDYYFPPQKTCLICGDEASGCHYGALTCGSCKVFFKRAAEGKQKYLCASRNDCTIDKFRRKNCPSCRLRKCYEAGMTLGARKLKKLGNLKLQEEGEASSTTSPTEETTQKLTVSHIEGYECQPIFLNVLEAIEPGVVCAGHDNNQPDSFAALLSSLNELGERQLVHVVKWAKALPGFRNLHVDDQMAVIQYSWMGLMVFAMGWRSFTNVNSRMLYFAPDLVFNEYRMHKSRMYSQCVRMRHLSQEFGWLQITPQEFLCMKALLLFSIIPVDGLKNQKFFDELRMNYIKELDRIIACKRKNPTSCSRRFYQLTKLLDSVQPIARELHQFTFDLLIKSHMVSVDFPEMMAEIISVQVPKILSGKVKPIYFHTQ

Row | IC50 (Progesterone receptor [1]) [µM] | Structure (SMILES) | other results
1 | 0.51 | O=c1ccc2cc(-c3ccccc3)ccc2o1 | 
2 | 0.47 | CN(C)c1cc2oc(=O)ccc2cc1-c1ccc(F)cc1 | 
3 | 1.28 | O=c1ccc2cc(-c3ccco3)ccc2o1 | 
4 | 0.065 | Cn1c(C#N)ccc1-c1ccc2oc(=O)ccc2c1 | Activity [2]: Active; Activity [3]: Active; IC50 (Progesterone receptor [4]): 15.2 µM; Activity [5]: Active
5 | 0.12 | O=c1ccc2cc(-c3ccc(Cl)s3)ccc2o1 | Activity [2]: Active; Activity [3]: Active; IC50 (Progesterone receptor [4]): 50.5 µM; Activity [5]: Active
6 | 0.21 | O=c1ccc2cc(-c3ccc(F)cc3)ccc2o1 | 
7 | 0.26 | CN(C)c1cc2oc(=O)ccc2cc1-c1cccc(C#N)c1 | 
8 | 3.34 | COc1cc2oc(=O)ccc2cc1-c1ccc(N(C)C)cc1 | 
9 | 0.25 | CN(C)c1cc2oc(=O)ccc2cc1-c1ccc(C#N)cc1 | 
10 | 4.07 | CCOC(=O)c1cc2cc(-c3ccccc3)c(N(CC)CC)cc2oc1=O | 
11 | 0.31 | CN(C)c1ccc(-c2ccc3oc(=O)ccc3c2)cc1 | 
12 | 0.56 | O=c1ccc2cc(-c3cc(F)cc(F)c3)ccc2o1 | 
13 | 1.28 | O=c1ccc2cc(-c3ccccc3)c(O)cc2o1 | 
14 | 0.77 | CCN(CC)c1cc2oc(=O)ccc2cc1-c1ccc(Cl)cc1 | 
15 | 0.5 | CCN(CC)c1cc2oc(=O)ccc2cc1-c1ccc(C#N)cc1 | 
16 | 0.5 | CCN(CC)c1cc2oc(=O)ccc2cc1-c1ccccc1 | Activity [2]: Active; Activity [3]: Active; IC50 (Glucocorticoid receptor): 3.54 µM; IC50 (Progesterone receptor [4]): 1.42 µM; Activity [6]: inactive; Activity [7]: Active; Activity [8]: inactive; IC50 (Androgen receptor): 10 µM; Activity [5]: Active

Row | IC50 (Progesterone receptor [1]) [µM] | Structure (SMILES) | other results
17 | 0.19 | O=c1ccc2cc(-c3cccc(C(F)(F)F)c3)ccc2o1 | 
18 | 0.38 | CCN(CC)c1cc2oc(=O)ccc2cc1-c1cccc(C#N)c1 | 
19 | 0.63 | CCN(CC)c1cc2oc(=O)ccc2cc1-c1ccc(F)cc1 | 
20 | 27.9 | O=c1ccc2cc(-c3cccc(-c4cccnc4)c3)ccc2o1 | 
21 | 0.86 | CCN(CC)c1cc2oc(=O)ccc2cc1-c1ccc([N+](=O)[O-])cc1 | 
22 | 0.4 | CCN(CC)c1cc2oc(=O)ccc2cc1-c1ccc(C(C)=O)cc1 | 
23 | 0.51 | CCN(CC)c1cc2oc(=O)ccc2cc1-c1ccc(N)c([N+](=O)[O-])c1 | 
24 | 0.22 | CCN(CC)c1cc2oc(=O)ccc2cc1-c1cccs1 | Activity [2]: Active; Activity [3]: Active; IC50 (Glucocorticoid receptor): 4.96 µM; IC50 (Progesterone receptor [4]): 1.24 µM; IC50 (Androgen receptor): 9.7 µM; Activity [5]: Active
25 | 0.39 | CCN(CC)c1cc2oc(=O)ccc2cc1-c1ccc(N(C)C)cc1 | 
26 | 0.36 | CN(C)c1cc2oc(=O)ccc2cc1-c1ccccc1 | 
27 | 1.11 | N#Cc1cccc(-c2ccc3oc(=O)ccc3c2)c1 | 
28 | 0.54 | O=c1ccc2cc(-c3cccs3)ccc2o1 | Activity [2]: Active; Activity [3]: Active; IC50 (Progesterone receptor [4]): 10 µM; Activity [5]: Active
29 | 0.88 | COc1cc2oc(=O)ccc2cc1-c1ccccc1 | 
30 | 0.29 | N#Cc1ccc(-c2ccc3oc(=O)ccc3c2)cc1 | 
31 | 2.59 | CN(C)c1ccc(-c2cc3ccc(=O)oc3cc2O)cc1 | 
32 | 0.47 | CCN(CC)c1cc2oc(=O)ccc2cc1-c1ccc(NC(C)=O)cc1 | 
